Results from patent US12325696B2, “Indazole derivative, preparation method therefor, and pharmaceutical application thereof” (JIANGSU HENGRUI MEDICINE CO., LTD., priority 2019, dated 2025).

Experiments:
Type in all cases: cell-based
[1] = system: estrogen receptor reporter gene; assay: Inhibition of estrogen receptor reporter gene activity (ERE-luc luciferase) in MCF7/ERE-luc cells; conditions: Homo sapiens, 0.1 nM β-estradiol, 20 hours, read-out: IC50 of inhibitory activity on the activity of the estrogen receptor reporter gene
Protocol: MCF7 cells MCF7/ERE-luc (ATCC, HTB-22) expressing the luciferase reporter gene ERE-luc (synthesized by GENEWIZ, Inc.) controlled by the estrogen receptor response element were cultured in MEM (GE Healthcare, SH30024.01) medium containing 10% fetal bovine serum and 500 µg/ml G418. On the first day of the experiment, MCF7/ERE-luc cells were seeded in a 96-well plate with incomplete MEM medium containing 10% fetal bovine serum treated with activated charcoal (BioSun, BS-0004-500) at a density of 30,000 cells/well (100 μl of cell suspension per well), and the plate was incubated in a cell incubator at 37° C. and 5% CO2 overnight. On the second day, 10 μl of β-estradiol (SIGMA, E2758-250MG) solution formulated with the above incomplete medium or test compound solution of different concentrations formulated with the above incomplete medium was added to each well, wherein the final concentration of β-estradiol was 0.1 nM, and the final concentrations of the compound were nine concentration points obtained by a 10-fold gradient dilution starting from 10 μM, a blank control containing 0.5% DMSO was set, and the plate was incubated in a cell incubator at 37° C. and 5% CO2 for 20 hours. On the third day, the 96-well plate was taken out, and 100 μl of ONE-Glo™ Luciferase Assay system (Promega, E6110) was added to each well to determine the activity of luciferase. The plate was left to stand at room temperature for 3 minutes until the cells were fully lysed, and the luminescence signal values were measured using a multi-label microplate reader (PerkinElmer, VICTOR 3). The IC50 values of the inhibitory activity of the compounds were calculated using Graphpad Prism software based on the concentrations and luminescence signal values of the compounds.
The inhibitory effect of the compounds of the present disclosure on the activity of the estrogen receptor reporter gene was determined by the above test. A graph of the chemiluminescence signal values versus the logarithmic concentrations of the compound was made using Graghpad Prism.

MCF7 cell = assay: Inhibition of proliferation of MCF7 cell (CellTiter-Glo, 144 hours); conditions: Homo sapiens; for IC50: MCF7, CellTiter-Glo, read-out: IC50 of the inhibitory effect on the proliferation of MCF7 cell; for Emax: MCF7 cell proliferation, read-out: Maximum inhibition
Protocol: (§1) MCF7 cells (ATCC, HTB-22) were cultured in MEM (GE Healthcare, SH30024.01) complete medium containing 10% fetal bovine serum. On the first day of the experiment, MCF7 cells were seeded in a 96-well plate with the complete medium at a density of 3,000 cells/well (100 μl of cell suspension per well), and the plate was incubated in a cell incubator at 37° C. and 5% CO2 overnight. On the second day, the medium in each well was replaced with 135 μl of MEM incomplete medium containing 2% fetal bovine serum. 15 μl of test compound solution of different concentrations formulated with the incomplete medium was added to each well, wherein the final concentrations of the compound were nine concentration points obtained by a 4-fold gradient dilution starting from 100 nM. A blank control containing 0.5% DMSO was set. The plate was incubated in a cell incubator at 37° C. and 5% CO2 for 144 hours. On the eighth day, the 96-well plate was taken out, and 150 μl of CellTiter-Glo® Luminescent Cell Viability Assay (Promega, G7573) was added to each well. The plate was left to stand at room temperature for 10 minutes, and the luminescence signal values were measured using a multi-label microplate reader (PerkinElmer, VICTOR 3). The IC50 values of the inhibitory activity of the compounds were calculated based on the concentrations and luminescence signal values of the compounds using Graphpad Prism software.
A graph of the chemiluminescence signal values versus the logarithmic concentrations of the compound was made using Graghpad Prism to obtain the IC50 values of the compound.

MCF7 D538G = assay: Inhibition of proliferation of MCF7 cell expressing ERα D538G mutant; conditions: Homo sapiens, 144 hours; for Emax: read-out: Maximum inhibition
Excerpt: (§2) The mutants ERα Y537S and ERα D538G of human estrogen receptor α (ERαs) protein were obtained by site-directed mutagenesis using the cDNA of wild-type ESR1 gene (Accession No. NM000125) as a template according to double-primer PCR. The primer sequences used for mutagenesis are as follows (the nucleotides underlined are the sites of mutagenesis):
(§3) The cDNA of mutant ESR1 was cloned into the target lentiviral vector pCDH-CMV-MCS-EF1-Puro (SBI, CD510B-1). The lentiviral plasmid with the mutant ESR1 gene sequence and the lentiviral packaging plasmids pVSV-G and pCMV-dR8.91 (SBI, LV500A-1) were transfected into HEK-293T cells (ATCC, CRL-3216) by Lipofectamine 3000 Transfection Reagent (ThermoFisher Scientific, Cat #L3000075). 48 hours after the transfection, the supernatant of the virus-containing DMEM high-glycemic medium (GE Healthcare, SH30243.01) containing 10% FBS was filtered, and ultracentrifuged to obtain the virus pellet. The virus pellet was resuspended in an appropriate amount of MEM medium (GE Healthcare, SH30024.01) containing 10% FBS, non-essential amino acids (SIGMA, M7145-100ML) and sodium pyruvate (SIGMA, S8636-100ML), and the resulting suspension was added to MCF7 cells (ATCC, HTB-22). Polybrene (SIGMA, H9268-5G) at a final concentration of 8 µg/ml was added, and the cells were incubated overnight. Two days after the transfection, […] puromycin (invitrogen, A11138-03) was added to the cell culture medium for resistance screening. After about two weeks, the MCF7 cell line capable of stably expressing ERαY537S and ERα D538G mutants was obtained.
as §1, with “MCF7 cells expressing ERα mutant were cultured” for “MCF7 cells (ATCC, HTB-22) were cultured”, “the experiment, the cells were” for “the experiment, MCF7 cells were”, “control containing 0.500 DMSO was” for “control containing 0.5% DMSO was”, “C. and […] for” for “C. and 5% CO2 for”, “and 150 of CellTiter-Glo®” for “and 150 μl of CellTiter-Glo®”

MCF7 ERαY537S = assay: Inhibition of proliferation of MCF7 cell expressing ERα Y537S mutant; conditions: Homo sapiens, 144 hours; for Emax: read-out: Maximum inhibition
Excerpt: as §2, §3
as §1, with “MCF7 cells expressing ERα mutant were cultured” for “MCF7 cells (ATCC, HTB-22) were cultured”, “the experiment, the cells were” for “the experiment, MCF7 cells were”, “control containing 0.500 DMSO was” for “control containing 0.5% DMSO was”, “C. and […] for” for “C. and 5% CO2 for”, “and 150 of CellTiter-Glo®” for “and 150 μl of CellTiter-Glo®”

`O=C(/C=C/CN1CCC[C@@H](Oc2ccc(/C(=C(/CC(F)(F)F)c3ccccc3)c3ccc4[nH]nc(F)c4c3)cn2)C1)NC1CCOCC1` [Example 13, (E)-N-(Tetrahydro-2H-pyran-4-yl)-4-((R)-3-((5-((Z)-4,4,4-trifluoro-1-(3-fluoro-1H-indazol-5-yl)-2-phenylbut-1-en-1-yl)pyridin-2-yl)oxy)piperidin-1-yl)but-2-enamide] showed an IC50 [1] of 3 nM, an IC50 (MCF7 cell) of 0.6 nM and an Emax (MCF7 cell) of 88%. For the same compound, the IC50 (MCF7 D538G) was 3 nM, the Emax (MCF7 D538G) was 107% and the IC50 (MCF7 ERαY537S) was 5 nM. The Emax (MCF7 ERαY537S) was 104%.

Work on `CN(C)C(=O)/C=C/CN1CC[C@@H](Oc2ccc(/C(=C(/CC(F)(F)F)c3ccccc3)c3ccc4[nH]nc(F)c4c3)cn2)C1` [Example 29, (E)-N,N-Dimethyl-4-((R)-3-((5-((Z)-4,4,4-trifluoro-1-(3-fluoro-1H-indazol-5-yl)-2-phenylbut-1-en-1-yl)pyridin-2-yl)oxy)pyrrolidin-1-yl)but-2-enamide] yielded an IC50 [1] of 3 nM, an IC50 (MCF7 cell) of 0.4 nM and an Emax (MCF7 cell) of 93%. It also gave an IC50 (MCF7 D538G) of 3 nM, an Emax (MCF7 D538G) of 93% and an IC50 (MCF7 ERαY537S) of 2 nM. The Emax (MCF7 ERαY537S) was 93%.

`CCN(C/C=C/C(=O)N(C)C)C1(COc2ccc(/C(=C(/CC(F)(F)F)c3ccccc3)c3ccc4[nH]nc(F)c4c3)cn2)CC1` [Example 6, (E)-4-(Ethyl(1-(((5-((Z)-4,4,4-trifluoro-1-(3-fluoro-1H-indazol-5-yl)-2-phenylbut-1-en-1-yl)pyridin-2-yl)oxy)methyl)cyclopropyl)amino)-N,N-dimethylbut-2-enamide] gave an IC50 [1] of 0.5 nM, an IC50 (MCF7 cell) of 0.15 nM and an Emax (MCF7 cell) of 94%. For the same compound, the IC50 (MCF7 D538G) was 0.5 nM, the Emax (MCF7 D538G) was 98% and the IC50 (MCF7 ERαY537S) was 1 nM. It also gave an Emax (MCF7 ERαY537S) of 102%.

`O=C(/C=C/CNC1(COc2ccc(/C(=C(/CC(F)(F)F)c3ccccc3)c3ccc4[nH]nc(F)c4c3)cn2)CC1)N1CCNCC1` [Example 4, (E)-1-(Piperazin-1-yl)-4-((1-(((5-((Z)-4,4,4-trifluoro-1-(3-fluoro-1H-indazol-5-yl)-2-phenylbut-1-en-1-yl)pyridin-2-yl)oxy)methyl)cyclopropyl)amino)but-2-en-1-one] was tested, and the IC50 [1] was 4 nM, the IC50 (MCF7 cell) was 1.5 nM and the Emax (MCF7 cell) was 113%. It also gave an IC50 (MCF7 D538G) of 10 nM, an Emax (MCF7 D538G) of 105% and an IC50 (MCF7 ERαY537S) of 11 nM. The Emax (MCF7 ERαY537S) was 101%.

Compound `O=C(/C=C/CN1CCC[C@@H](Oc2ccc(/C(=C(/CC(F)(F)F)c3ccccc3)c3ccc4[nH]nc(F)c4c3)cn2)C1)NC1CCCC1` [Example 17, (E)-N-Cyclopentyl-4-((R)-3-((5-((Z)-4,4,4-trifluoro-1-(3-fluoro-1H-indazol-5-yl)-2-phenylbut-1-en-1-yl)pyridin-2-yl)oxy)piperidin-1-yl)but-2-enamide] has an IC50 [1] of 6 nM, an IC50 (MCF7 cell) of 0.6 nM and an Emax (MCF7 cell) of 96%. For the same compound, the IC50 (MCF7 D538G) was 3 nM, the Emax (MCF7 D538G) was 104% and the IC50 (MCF7 ERαY537S) was 3 nM. For the same compound, the Emax (MCF7 ERαY537S) was 102%.

Work on `CC#CC(=O)N1CCC(Oc2ccc(/C(=C(/CC(F)(F)F)c3ccccc3)c3ccc4[nH]nc(F)c4c3)cn2)CC1` [Example 10, (Z)-1-(4-((5-(4,4,4-Trifluoro-1-(3-fluoro-1H-indazol-5-yl)-2-phenylbut-1-en-1-yl)pyridin-2-yl)oxy)piperidin-1-yl)but-2-yn-1-one] yielded an IC50 [1] of 8 nM, an IC50 (MCF7 cell) of 0.3 nM and an Emax (MCF7 cell) of 104%. For the same compound, the IC50 (MCF7 D538G) was 4 nM, the Emax (MCF7 D538G) was 104% and the IC50 (MCF7 ERαY537S) was 7 nM. The Emax (MCF7 ERαY537S) was 86%.

Compound `CN(C)C(=O)/C=C/CN1CCC(Nc2ccc(/C(=C(/CC(F)(F)F)c3ccccc3)c3ccc4[nH]nc(F)c4c3)cn2)CC1` [Example 33, (E)-N,N-Dimethyl-4-(4-((5-((Z)-4,4,4-trifluoro-1-(3-fluoro-1H-indazol-5-yl)-2-phenylbut-1-en-1-yl)pyridin-2-yl)amino)piperidin-1-yl)but-2-enamide] has an IC50 [1] of 3 nM, an IC50 (MCF7 cell) of 0.3 nM and an Emax (MCF7 cell) of 105%. It also gave an IC50 (MCF7 D538G) of 1 nM, an Emax (MCF7 D538G) of 106% and an IC50 (MCF7 ERαY537S) of 2 nM. It also gave an Emax (MCF7 ERαY537S) of 105%.

For `O=C(/C=C/CNC1(COc2ccc(/C(=C(/CC(F)(F)F)c3ccccc3)c3ccc4[nH]nc(F)c4c3)cn2)CC1)N1CCCCC1` [Example 3, (E)-1-(Piperidin-1-yl)-4-((1-(((5-((Z)-4,4,4-trifluoro-1-(3-fluoro-1H-indazol-5-yl)-2-phenylbut-1-en-1-yl)pyridin-2-yl)oxy)methyl)cyclopropyl)amino)but-2-en-1-one], the IC50 [1] was 4 nM, the IC50 (MCF7 cell) was 2 nM and the Emax (MCF7 cell) was 101%. For the same compound, the IC50 (MCF7 D538G) was 9 nM, the Emax (MCF7 D538G) was 96% and the IC50 (MCF7 ERαY537S) was 9 nM. The Emax (MCF7 ERαY537S) was 93%.

`CN(C)C(=O)/C=C/CN(C)C1(COc2ccc(/C(=C(/CC(F)(F)F)c3ccccc3)c3ccc4[nH]nc(F)c4c3)cn2)CC1` [Example 5, (E)-N,N-Dimethyl-4-(methyl(1-(((5-((Z)-4,4,4-trifluoro-1-(3-fluoro-1H-indazol-5-yl)-2-phenylbut-1-en-1-yl)pyridin-2-yl)oxy)methyl)cyclopropyl)amino)but-2-enamide] was tested, and the IC50 [1] was 3 nM, the IC50 (MCF7 cell) was 0.1 nM and the Emax (MCF7 cell) was 96%. The IC50 (MCF7 D538G) was 0.2 nM, the Emax (MCF7 D538G) was 98% and the IC50 (MCF7 ERαY537S) was 0.3 nM. For the same compound, the Emax (MCF7 ERαY537S) was 107%.

`CN(C)C(=O)/C=C/CNC1(COc2ccc(/C(=C(/CC(F)(F)F)c3ccccc3)c3ccc4[nH]nc(F)c4c3)cn2)CCCC1` [Example 7, (E)-N,N-Dimethyl-4-((1-(((5-((Z)-4,4,4-trifluoro-1-(3-fluoro-1H-indazol-5-yl)-2-phenylbut-1-en-1-yl)pyridin-2-yl)oxy)methyl)cyclopentyl)amino)but-2-enamide] showed an IC50 [1] of 38 nM, an IC50 (MCF7 cell) of 2 nM and an Emax (MCF7 cell) of 102%. For the same compound, the IC50 (MCF7 D538G) was 12 nM, the Emax (MCF7 D538G) was 84% and the IC50 (MCF7 ERαY537S) was 12 nM. The Emax (MCF7 ERαY537S) was 88%.
